Test results reported in patent US10344025B2, “GLS1 inhibitors for treating disease” (Board of Regents, The University of Texas System, priority 2014, dated 2019).

These molecules were tested against purified recombinant human GAC (GLS1) (Homo sapiens (Human), UniProt O94925) (assay: GLS1 Enzymatic Activity Assay (dual-coupled enzymatic assay, resorufin/Amplex UltraRed readout);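 also: glutamate from GAC coupled via glutamate oxidase and peroxidase to resorufin, read as fluorescence (ex 530, em 590 nm) kinetically or at 20 min, four-parameter logistic IC50 fit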).
Format: biochemical

Sequence of purified recombinant human GAC (GLS1) (O94925 other isoform, or with tags, fused parts or gaps): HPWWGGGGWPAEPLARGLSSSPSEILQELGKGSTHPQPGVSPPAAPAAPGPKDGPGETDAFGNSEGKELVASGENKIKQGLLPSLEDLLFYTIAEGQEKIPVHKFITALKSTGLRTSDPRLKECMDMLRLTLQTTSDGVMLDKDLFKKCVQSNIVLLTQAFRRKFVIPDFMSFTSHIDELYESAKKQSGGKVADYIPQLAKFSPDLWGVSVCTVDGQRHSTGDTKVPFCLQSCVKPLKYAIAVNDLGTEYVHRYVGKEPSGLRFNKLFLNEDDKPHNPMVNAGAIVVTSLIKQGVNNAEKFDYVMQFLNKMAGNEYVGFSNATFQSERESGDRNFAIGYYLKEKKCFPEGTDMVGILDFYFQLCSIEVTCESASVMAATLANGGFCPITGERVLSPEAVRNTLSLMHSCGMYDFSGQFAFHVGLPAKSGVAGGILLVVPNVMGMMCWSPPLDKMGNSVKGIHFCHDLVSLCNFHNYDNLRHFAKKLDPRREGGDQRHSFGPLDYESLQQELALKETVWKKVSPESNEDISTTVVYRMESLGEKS

`O=C(Cc1cccnc1)Nc1cn(CCCCn2cc(C(=O)NCc3ccccn3)nn2)nn1` [Example 298, N-(pyridin-2-ylmethyl)-1-(4-{4-[2-(pyridin-3-yl)acetamido]-1H-1,2,3-triazol-1-yl}butyl)-1H-1,2,3-triazole-4-carboxamide] and `O=C(Cc1ccccn1)Nc1cn(CCCCn2cc(C(=O)NCc3ccccn3)nn2)nn1` [Example 297, 1-[4-[4-[[2-(2-pyridyl)acetyl]amino]triazol-1-yl]butyl]-N-(2-pyridylmethyl)triazole-4-carboxamide] fall in the same range of IC50: 500 to 5000 nM for the first, 500 to 5000 nM for the second.

`Cc1ccc(CNC(=O)c2cn(CCCCn3cc(NC(=O)CN4CCC(F)(F)CC4)nn3)nn2)cn1` [Example 358, 1-(4-{4-[2-(4,4-difluoropiperidin-1-yl)acetamido]-1H-1,2,3-triazol-1-yl}butyl)-N-[(6-methylpyridin-3-yl)methyl]-1H-1,2,3-triazole-4-carboxamide] and `Cc1ccc(CNC(=O)c2cn(CCCCn3cc(NC(=O)CN4CCC(F)(F)C4)nn3)nn2)cn1` [Example 354, 1-(4-{4-[2-(3,3-difluoropyrrolidin-1-yl)acetamido]-1H-1,2,3-triazol-1-yl}butyl)-N-[(6-methylpyridin-3-yl)methyl]-1H-1,2,3-triazole-4-carboxamide] fall in the same range of IC50: 500 to 5000 nM for the first, 500 to 5000 nM for the second.

First: Cc1ccc(CNC(=O)c2cn(CCCCc3nnc(C(=O)NCC4CN(C(=O)OC(C)(C)C)C4)s3)nn2)cn1 [Example 74, tert-butyl 3-[({5-[4-(4-{[(6-methylpyridin-3-yl)methyl]carbamoyl}-1H-1,2,3-triazol-1-yl)butyl]-1,3,4-thiadiazol-2-yl}formamido)methyl] azetidine-1-carboxylate]
Second: O=C(NCc1ccccn1)c1cn(CCCCc2nnc(C(=O)NCC3CC3)s2)nn1 [Example 68, N-(cyclopropylmethyl)-5-(4-{4-[(pyridin-2-ylmethyl)carbamoyl]-1H-1,2,3-triazol-1-yl}butyl)-1,3,4-thiadiazole-2-carboxamide]
The IC50 of the first is lower: 100 to 500 nM for the first, 500 to 5000 nM for the second. The first is the more potent here.

`O=C(CN1CCC(F)(F)CC1)Nc1cn(CCCCn2cc(C(=O)NCc3ccccn3)nn2)nn1` [Example 326, 1-(4-{4-[2-(4,4-difluoropiperidin-1-yl)acetamido]-1H-1,2,3-triazol-1-yl}butyl)-N-(pyridin-2-ylmethyl)-1H-1,2,3-triazole-4-carboxamide] and `O=C(CN1CCC(F)(F)C1)Nc1cn(CCCCn2cc(C(=O)NCc3ccccn3)nn2)nn1` [Example 325, 1-(4-{4-[2-(3,3-difluoropyrrolidin-1-yl)acetamido]-1H-1,2,3-triazol-1-yl}butyl)-N-(pyridin-2-ylmethyl)-1H-1,2,3-triazole-4-carboxamide] fall in the same range of IC50: 500 to 5000 nM for the first, 500 to 5000 nM for the second.

`O=C(Cc1ccccn1)Nc1cn(CC(F)CCn2cc(C(=O)NCc3ncccc3F)nn2)nn1` (centres unmarked) [Example 365, 1-(3-fluoro-4-{4-[2-(pyridin-2-yl)acetamido]-1H-1,2,3-triazol-1-yl}butyl)-N-[(3-fluoropyridin-2-yl)methyl]-1H-1,2,3-triazole-4-carboxamide] and `O=C(Cc1ccccn1)Nc1cn(CCCCn2cc(C(=O)NCC3CC3)nn2)nn1` [Example 302, N-(cyclopropylmethyl)-1-(4-{4-[2-(pyridin-2-yl)acetamido]-1H-1,2,3-triazol-1-yl}butyl)-1H-1,2,3-triazole-4-carboxamide] fall in the same range of IC50: 500 to 5000 nM for the first, 500 to 5000 nM for the second.

`O=C(CN1CC(F)(F)C1)Nc1cn(CCCCn2cc(C(=O)NCc3ccccn3)nn2)nn1` [Example 323, 1-(4-{4-[2-(3,3-difluoroazetidin-1-yl)acetamido]-1H-1,2,3-triazol-1-yl}butyl)-N-(pyridin-2-ylmethyl)-1H-1,2,3-triazole-4-carboxamide] and `O=C(CN1CC(F)C1)Nc1cn(CCCCn2cc(C(=O)NCc3ccccn3)nn2)nn1` [Example 324, 1-(4-{4-[2-(3-fluoroazetidin-1-yl)acetamido]-1H-1,2,3-triazol-1-yl}butyl)-N-(pyridin-2-ylmethyl)-1H-1,2,3-triazole-4-carboxamide] fall in the same range of IC50: 500 to 5000 nM for the first, 500 to 5000 nM for the second.

`CC(C)CCNCc1cn(CCCCn2cc(C(=O)NCc3cccc(OC(F)(F)F)c3)nn2)nn1` [Example 57, 1-(4-(4-((isopentylamino)methyl)-1H-1,2,3-triazol-1-yl)butyl)-N-(3-(trifluoromethoxy)benzyl)-1H-1,2,3-triazole-4-carboxamide] and `CCC(=O)NCc1cn(CCCCn2cc(C(=O)NCc3cccc(OC(F)(F)F)c3)nn2)nn1` [Example 58, 1-(4-(4-(propionamidomethyl)-1H-1,2,3-triazol-1-yl)butyl)-N-(3-(trifluoromethoxy)benzyl)-1H-1,2,3-triazole-4-carboxamide] fall in the same range of IC50: 500 to 5000 nM for the first, 500 to 5000 nM for the second.

`O=C(CN1CCC(F)(F)CC1)Nc1cn(CCCCn2cc(C(=O)NCc3ncccc3F)nn2)nn1` [Example 361, 1-(4-{4-[2-(4,4-difluoropiperidin-1-yl)acetamido]-1H-1,2,3-triazol-1-yl}butyl)-N-[(3-fluoropyridin-2-yl)methyl]-1H-1,2,3-triazole-4-carboxamide] and `O=C(CN1CCC(F)(F)C1)Nc1cn(CCCCn2cc(C(=O)NCc3ncccc3F)nn2)nn1` [Example 357, 1-(4-{4-[2-(3,3-difluoropyrrolidin-1-yl)acetamido]-1H-1,2,3-triazol-1-yl}butyl)-N-[(3-fluoropyridin-2-yl)methyl]-1H-1,2,3-triazole-4-carboxamide] fall in the same range of IC50: 500 to 5000 nM for the first, 500 to 5000 nM for the second.

First: O=C(Cc1cccc(OC(F)(F)F)c1)Nc1cn(CCCCn2cc(C(=O)NCc3cc(OC(F)(F)F)ccc3F)nn2)nn1 [Example 333, N-{[2-fluoro-5-(trifluoromethoxy)phenyl]methyl}-1-[4-(4-{2-[3-(trifluoromethoxy)phenyl]acetamido}-1H-1,2,3-triazol-1-yl)butyl]-1H-1,2,3-triazole-4-carboxamide]
Second: CC(C)NC(=O)c1cn(CCCCc2nnc(NC(=O)Cc3cccc(OC(F)(F)F)c3)s2)nn1 [Example 10, N-(propan-2-yl)-1-[4-(5-{2-[3-(trifluoromethoxy)phenyl]acetamido}-1,3,4-thiadiazol-2-yl)butyl]-1H-1,2,3-triazole-4-carboxamide]
The IC50 of the first is higher: 500 to 5000 nM for the first, 100 to 500 nM for the second.

First: O=C(NCc1ccccn1)c1cn(CCCCc2nnc(C(=O)NCc3ccccn3)s2)nn1 [Example 66, N-(pyridin-2-ylmethyl)-5-(4-{4-[(pyridin-2-ylmethyl)carbamoyl)-1H-1,2,3-triazol-1-yl}butyl)-1,3,4-thiadiazole-2-carboxamide]
Second: O=C(NCc1ccccc1)c1cn(CCCCc2nnc(C(=O)NCc3ccccn3)s2)nn1 [Example 40, 5-{4-[4-(benzylcarbamoyl)-1H-1,2,3-triazol-1-yl]butyl}-N-(pyridin-2-ylmethyl)-1,3,4-thiadiazole-2-carboxamide]
The IC50 of the first is higher: 500 to 5000 nM for the first, 100 to 500 nM for the second.

`O=C(Cc1cccnc1)Nc1cn(CCCCn2cc(C(=O)NCC3CCCC3)nn2)nn1` [Example 290, N-(cyclopentylmethyl)-1-(4-{4-[2-(pyridin-3-yl)acetamido]-1H-1,2,3-triazol-1-yl}butyl)-1H-1,2,3-triazole-4-carboxamide] and `O=C(Cc1cccnc1)Nc1cn(CCCCn2cc(C(=O)NCC3CC3)nn2)nn1` [Example 303, N-(cyclopropylmethyl)-1-(4-{4-[2-(pyridin-3-yl)acetamido]-1H-1,2,3-triazol-1-yl}butyl)-1H-1,2,3-triazole-4-carboxamide] fall in the same range of IC50: 500 to 5000 nM for the first, 500 to 5000 nM for the second.

`Cc1ccc(CNC(=O)c2cn(CCCCn3cc(NC(=O)CN4CC(F)C4)nn3)nn2)cn1` [Example 348, 1-(4-{4-[2-(3-fluoroazetidin-1-yl)acetamido]-1H-1,2,3-triazol-1-yl}butyl)-N-[(6-methylpyridin-3-yl)methyl]-1H-1,2,3-triazole-4-carboxamide] and `Cc1ccc(CNC(=O)c2cn(CCCCn3cc(NC(=O)CN4CC(F)(F)C4)nn3)nn2)cn1` [Example 351, 1-(4-{4-[2-(3,3-difluoroazetidin-1-yl)acetamido]-1H-1,2,3-triazol-1-yl}butyl)-N-[(6-methylpyridin-3-yl)methyl]-1H-1,2,3-triazole-4-carboxamide] fall in the same range of IC50: 500 to 5000 nM for the first, 500 to 5000 nM for the second.

`O=C(NCc1ccccn1)c1cn(CCCCn2cc(C(=O)NCc3ccccn3)nn2)nn1` [Example 71, N-(pyridin-2-ylmethyl)-1-(4-{4-[(pyridin-2-ylmethyl)carbamoyl]-1H-1,2,3-triazol-1-yl}butyl)-1H-1,2,3-triazole-4-carboxamide] and `O=C(NCC1CC1)c1cn(CCCCc2nnc(C(=O)NCc3ccccn3)s2)nn1` [Example 69, 5-(4-{4-[(cyclopropylmethyl)carbamoyl]-1H-1,2,3-triazol-1-yl}butyl)-N-(pyridin-2-ylmethyl)-1,3,4-thiadiazole-2-carboxamide] fall in the same range of IC50: 500 to 5000 nM for the first, 500 to 5000 nM for the second.

First: CC(C)(C)OC(=O)N1CCC(Cn2cc(CCCCn3cc(C(=O)NCc4cccc(OC(F)(F)F)c4)nn3)nn2)CC1 [Example 8, Tert-butyl 4-((4-(4-(4-(3-(trifluoromethoxy)benzylcarbamoyl)-1H-1,2,3-triazol-1-yl)butyl)-1H-1,2,3-triazol-1-yl)methyl)piperidine-1-carboxylate]
Second: O=C(CC1CC1)Nc1cn(CCCCn2cc(C(=O)NCc3cccnc3)nn2)nn1 [Example 308, 1-{4-[4-(2-cyclopropylacetamido)-1H-1,2,3-triazol-1-yl]butyl}-N-(pyridin-3-ylmethyl)-1H-1,2,3-triazole-4-carboxamide]
The IC50 of the first is lower: 100 to 500 nM for the first, 500 to 5000 nM for the second. The first is the more potent here.

`CC(C)(C)OC(=O)N1CCC(Cn2cc(CCCCn3cc(C(=O)NCc4cccc(OC(F)(F)F)c4)nn3)nn2)CC1` [Example 53] and `O=C(Cc1ccccn1)Nc1cn(CCCCn2cc(C(=O)NCC3CCCC3)nn2)nn1` [Example 291, N-(cyclopentylmethyl)-1-(4-{4-[2-(pyridin-2-yl)acetamido]-1H-1,2,3-triazol-1-yl}butyl)-1H-1,2,3-triazole-4-carboxamide] fall in the same range of IC50: 500 to 5000 nM for the first, 500 to 5000 nM for the second.

`O=C(CC1CC1)Nc1cn(CCCCn2cc(C(=O)NCC3CCCCC3)nn2)nn1` [Example 281, N-(cyclohexylmethyl)-1-{4-[4-(2-cyclopropylacetamido)-1H-1,2,3-triazol-1-yl]butyl}-1H-1,2,3-triazole-4-carboxamide] and `O=C(CC1CCCCC1)Nc1cn(CCCCn2cc(C(=O)NCC3CCCCC3)nn2)nn1` [Example 283, 1-{4-[4-(2-cyclohexylacetamido)-1H-1,2,3-triazol-1-yl]butyl}-N-(cyclohexylmethyl)-1H-1,2,3-triazole-4-carboxamide] fall in the same range of IC50: 500 to 5000 nM for the first, 500 to 5000 nM for the second.
